Test results taken from ChEMBL document CHEMBL1743201, “Casarett and Doull's Toxicology The Basic Science of Poisons, 7th edition” (2008).
Values belong to the molecule of their own block, whether it stands above or below them.

Tests used:
Assay type in all cases: ADME
Sulfotransferase 2A1 = molecular target: T1, Sulfotransferase 2A1 (Homo sapiens, UniProt Q06520); assay: Major substrate of human cytosolic sulfotransferase SULT2A1
T1 sequence (Q06520 whole entry): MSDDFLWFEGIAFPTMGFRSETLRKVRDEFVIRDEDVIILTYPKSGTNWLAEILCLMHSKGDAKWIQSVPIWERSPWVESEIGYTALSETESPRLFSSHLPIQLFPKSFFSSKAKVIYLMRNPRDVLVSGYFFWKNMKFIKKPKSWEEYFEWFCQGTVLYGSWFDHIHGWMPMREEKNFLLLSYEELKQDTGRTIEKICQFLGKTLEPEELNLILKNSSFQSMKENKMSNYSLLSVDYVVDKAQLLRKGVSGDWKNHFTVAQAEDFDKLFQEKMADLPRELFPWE

Sulfotransferase 1C4 = Sulfotransferase 1C4 (Homo sapiens, UniProt O75897); assay: Major substrate of human cytosolic sulfotransferase SULT1C4
Sequence of Sulfotransferase 1C4 (O75897 whole entry): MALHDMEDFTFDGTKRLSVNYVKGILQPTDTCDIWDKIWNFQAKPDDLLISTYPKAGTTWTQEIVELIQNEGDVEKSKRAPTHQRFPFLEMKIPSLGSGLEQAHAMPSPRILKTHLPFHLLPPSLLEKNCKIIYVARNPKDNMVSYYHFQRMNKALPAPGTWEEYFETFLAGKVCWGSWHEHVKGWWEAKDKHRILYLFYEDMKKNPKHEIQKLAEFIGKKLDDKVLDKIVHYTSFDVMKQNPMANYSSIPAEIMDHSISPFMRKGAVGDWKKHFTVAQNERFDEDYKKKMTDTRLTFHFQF

Sulfotransferase 1A3 = Sulfotransferase 1A3 (Homo sapiens, UniProt P0DMM9); assay: Major substrate of human cytosolic sulfotransferase SULT1A3
Sequence of Sulfotransferase 1A3 (P0DMM9 whole entry): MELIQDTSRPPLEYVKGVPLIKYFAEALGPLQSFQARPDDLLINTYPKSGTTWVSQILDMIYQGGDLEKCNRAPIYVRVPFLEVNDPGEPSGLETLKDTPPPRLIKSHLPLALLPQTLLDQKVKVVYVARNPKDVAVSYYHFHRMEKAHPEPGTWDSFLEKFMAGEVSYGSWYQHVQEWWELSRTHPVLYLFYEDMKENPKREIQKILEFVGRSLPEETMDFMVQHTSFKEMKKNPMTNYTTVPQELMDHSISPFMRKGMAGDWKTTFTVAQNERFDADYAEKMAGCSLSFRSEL

[1] = molecular target: T2, UDP-glucuronosyltransferase 1A10 (Homo sapiens, UniProt Q9HAW8); assay: Substrate of human UDP-glucuronosyltransferase UGT1A10
T2 sequence (Q9HAW8 whole entry): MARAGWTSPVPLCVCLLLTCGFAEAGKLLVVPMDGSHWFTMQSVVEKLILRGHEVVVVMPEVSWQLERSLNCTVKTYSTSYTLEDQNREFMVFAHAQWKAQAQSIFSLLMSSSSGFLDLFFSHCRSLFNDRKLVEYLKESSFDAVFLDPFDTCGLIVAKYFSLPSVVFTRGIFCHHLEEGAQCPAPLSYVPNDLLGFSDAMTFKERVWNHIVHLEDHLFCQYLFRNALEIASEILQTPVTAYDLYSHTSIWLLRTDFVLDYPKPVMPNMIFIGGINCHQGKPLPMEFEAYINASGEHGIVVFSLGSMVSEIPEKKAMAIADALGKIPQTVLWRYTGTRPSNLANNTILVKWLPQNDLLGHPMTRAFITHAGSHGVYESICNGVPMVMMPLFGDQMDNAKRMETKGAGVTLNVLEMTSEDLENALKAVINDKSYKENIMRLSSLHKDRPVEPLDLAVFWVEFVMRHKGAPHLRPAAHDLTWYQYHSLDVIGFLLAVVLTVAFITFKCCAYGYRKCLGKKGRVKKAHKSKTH

[2] = molecular target: T3, UDP-glucuronosyltransferase 1A6 (Homo sapiens, UniProt P19224); assay: Substrate of human UDP-glucuronosyltransferase UGT1A6
T3 sequence (P19224 whole entry): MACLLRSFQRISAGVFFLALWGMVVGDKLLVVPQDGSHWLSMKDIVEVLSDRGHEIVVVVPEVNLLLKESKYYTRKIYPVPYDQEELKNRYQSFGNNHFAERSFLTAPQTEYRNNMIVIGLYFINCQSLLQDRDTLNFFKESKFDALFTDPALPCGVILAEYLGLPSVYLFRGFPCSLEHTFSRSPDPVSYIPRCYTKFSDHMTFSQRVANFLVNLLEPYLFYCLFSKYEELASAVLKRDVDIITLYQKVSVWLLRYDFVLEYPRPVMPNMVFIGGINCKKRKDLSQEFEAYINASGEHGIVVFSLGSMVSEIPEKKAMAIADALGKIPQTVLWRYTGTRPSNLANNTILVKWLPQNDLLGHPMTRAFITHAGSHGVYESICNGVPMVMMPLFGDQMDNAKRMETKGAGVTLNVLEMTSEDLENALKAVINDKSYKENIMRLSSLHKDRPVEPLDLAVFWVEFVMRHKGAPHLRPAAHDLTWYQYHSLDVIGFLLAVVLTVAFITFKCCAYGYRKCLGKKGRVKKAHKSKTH

Sulfotransferase 1E1 = molecular target: T4, Sulfotransferase 1E1 (Homo sapiens, UniProt P49888); assay: Major substrate of human cytosolic sulfotransferase SULT1E1
T4 sequence (P49888 whole entry): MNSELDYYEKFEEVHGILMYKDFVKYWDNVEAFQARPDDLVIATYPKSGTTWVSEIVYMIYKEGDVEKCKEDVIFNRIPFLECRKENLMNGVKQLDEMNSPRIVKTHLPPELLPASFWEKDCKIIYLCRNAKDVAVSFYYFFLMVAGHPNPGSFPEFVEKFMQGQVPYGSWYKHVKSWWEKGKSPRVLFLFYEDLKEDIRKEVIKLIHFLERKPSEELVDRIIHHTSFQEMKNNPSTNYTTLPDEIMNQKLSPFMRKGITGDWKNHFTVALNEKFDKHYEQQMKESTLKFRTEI

Sulfotransferase 1A1 = Sulfotransferase 1A1 (Homo sapiens, UniProt P50225); assay: Major substrate of human cytosolic sulfotransferase SULT1A1
Sequence of Sulfotransferase 1A1 (P50225 whole entry): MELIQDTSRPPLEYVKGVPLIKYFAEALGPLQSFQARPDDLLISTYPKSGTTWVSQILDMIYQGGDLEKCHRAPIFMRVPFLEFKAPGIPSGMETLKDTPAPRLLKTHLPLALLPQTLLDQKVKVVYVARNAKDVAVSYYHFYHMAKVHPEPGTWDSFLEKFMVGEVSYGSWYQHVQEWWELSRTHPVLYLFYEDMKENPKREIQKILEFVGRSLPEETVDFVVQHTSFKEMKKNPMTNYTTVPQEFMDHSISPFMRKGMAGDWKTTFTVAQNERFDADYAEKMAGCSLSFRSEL

Sulfotransferase 1B1 = Sulfotransferase 1B1 (Homo sapiens, UniProt O43704); assay: Major substrate of human cytosolic sulfotransferase SULT1B1
Sequence of Sulfotransferase 1B1 (O43704 whole entry): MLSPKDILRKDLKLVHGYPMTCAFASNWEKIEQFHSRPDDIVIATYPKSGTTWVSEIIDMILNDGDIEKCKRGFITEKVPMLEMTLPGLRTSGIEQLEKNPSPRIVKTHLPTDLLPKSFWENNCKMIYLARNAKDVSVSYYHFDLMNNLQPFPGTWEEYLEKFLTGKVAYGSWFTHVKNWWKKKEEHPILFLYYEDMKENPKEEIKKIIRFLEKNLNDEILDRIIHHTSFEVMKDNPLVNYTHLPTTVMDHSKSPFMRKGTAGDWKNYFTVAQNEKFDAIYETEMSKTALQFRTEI

Sulfotransferase 4A1 = molecular target: T5, Sulfotransferase 4A1 (Homo sapiens, UniProt Q9BR01); assay: Major substrate of human cytosolic sulfotransferase SULT4A1_v1
T5 sequence (Q9BR01 whole entry): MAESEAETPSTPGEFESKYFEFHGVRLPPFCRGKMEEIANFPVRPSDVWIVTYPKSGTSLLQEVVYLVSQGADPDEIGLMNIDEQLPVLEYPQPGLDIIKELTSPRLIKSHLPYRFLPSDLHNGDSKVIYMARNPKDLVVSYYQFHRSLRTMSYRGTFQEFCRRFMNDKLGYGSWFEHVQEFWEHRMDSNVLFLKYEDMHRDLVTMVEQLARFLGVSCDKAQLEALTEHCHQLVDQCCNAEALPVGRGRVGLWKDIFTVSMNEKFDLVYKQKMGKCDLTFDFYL

[3] = molecular target: T6, UDP-glucuronosyltransferase 1A8 (Homo sapiens, UniProt Q9HAW9); assay: Substrate of human UDP-glucuronosyltransferase UGT1A8
T6 sequence (Q9HAW9 whole entry): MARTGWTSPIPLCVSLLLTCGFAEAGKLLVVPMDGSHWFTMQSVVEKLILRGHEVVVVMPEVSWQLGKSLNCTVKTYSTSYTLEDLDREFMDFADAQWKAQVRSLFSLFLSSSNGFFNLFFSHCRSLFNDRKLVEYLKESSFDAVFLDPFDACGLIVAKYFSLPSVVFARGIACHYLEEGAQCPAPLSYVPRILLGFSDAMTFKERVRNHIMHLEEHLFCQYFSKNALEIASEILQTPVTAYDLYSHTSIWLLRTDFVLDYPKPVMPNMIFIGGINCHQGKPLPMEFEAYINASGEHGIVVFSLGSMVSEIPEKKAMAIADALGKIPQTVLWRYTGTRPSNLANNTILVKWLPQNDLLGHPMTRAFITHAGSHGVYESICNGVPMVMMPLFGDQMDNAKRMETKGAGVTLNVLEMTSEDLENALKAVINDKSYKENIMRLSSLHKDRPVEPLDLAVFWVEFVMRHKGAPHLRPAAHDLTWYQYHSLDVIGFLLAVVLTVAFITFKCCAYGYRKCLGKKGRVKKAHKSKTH

[4] = molecular target: T7, UDP-glucuronosyltransferase 1A9 (Homo sapiens, UniProt O60656); assay: Substrate of human UDP-glucuronosyltransferase UGT1A9
T7 sequence (O60656 whole entry): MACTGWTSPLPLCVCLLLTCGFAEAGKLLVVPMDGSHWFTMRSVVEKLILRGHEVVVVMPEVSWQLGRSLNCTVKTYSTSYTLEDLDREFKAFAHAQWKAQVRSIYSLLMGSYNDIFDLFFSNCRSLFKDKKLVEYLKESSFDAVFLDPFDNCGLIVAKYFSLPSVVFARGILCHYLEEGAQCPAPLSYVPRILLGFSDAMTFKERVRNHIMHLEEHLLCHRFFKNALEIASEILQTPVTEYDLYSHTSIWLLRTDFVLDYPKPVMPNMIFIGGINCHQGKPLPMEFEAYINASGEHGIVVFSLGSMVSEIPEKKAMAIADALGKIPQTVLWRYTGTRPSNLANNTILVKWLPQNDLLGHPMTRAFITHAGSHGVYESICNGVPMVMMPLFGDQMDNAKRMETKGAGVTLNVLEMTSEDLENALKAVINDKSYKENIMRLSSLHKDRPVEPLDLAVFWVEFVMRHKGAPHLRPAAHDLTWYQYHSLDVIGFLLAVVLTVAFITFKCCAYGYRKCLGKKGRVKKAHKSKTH

Cytochrome P450 2C8 = molecular target: T8, Cytochrome P450 2C8 (Homo sapiens, UniProt P10632); assay: Clinically relevant inhibitors of human liver microsomal P450 enzymes, isoform CYP2C8; details: microsomes
T8 sequence (P10632 whole entry): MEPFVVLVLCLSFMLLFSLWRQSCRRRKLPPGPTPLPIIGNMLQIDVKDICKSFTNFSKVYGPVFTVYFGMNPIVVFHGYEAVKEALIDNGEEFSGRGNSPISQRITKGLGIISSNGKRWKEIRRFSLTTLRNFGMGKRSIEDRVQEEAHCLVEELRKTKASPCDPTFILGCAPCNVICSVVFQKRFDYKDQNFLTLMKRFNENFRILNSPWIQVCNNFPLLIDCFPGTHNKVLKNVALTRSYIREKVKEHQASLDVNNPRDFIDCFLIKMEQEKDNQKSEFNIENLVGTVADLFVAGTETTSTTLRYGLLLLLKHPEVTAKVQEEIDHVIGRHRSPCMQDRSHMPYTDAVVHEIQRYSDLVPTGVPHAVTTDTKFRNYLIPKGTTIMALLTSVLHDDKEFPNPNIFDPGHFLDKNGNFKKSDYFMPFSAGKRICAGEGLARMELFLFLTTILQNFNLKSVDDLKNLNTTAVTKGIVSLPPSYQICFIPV

[5] = molecular target: T9, UDP-glucuronosyltransferase 1A1 (Homo sapiens, UniProt P22309); assay: Substrate of human UDP-glucuronosyltransferase UGT1A1
T9 sequence (P22309 whole entry): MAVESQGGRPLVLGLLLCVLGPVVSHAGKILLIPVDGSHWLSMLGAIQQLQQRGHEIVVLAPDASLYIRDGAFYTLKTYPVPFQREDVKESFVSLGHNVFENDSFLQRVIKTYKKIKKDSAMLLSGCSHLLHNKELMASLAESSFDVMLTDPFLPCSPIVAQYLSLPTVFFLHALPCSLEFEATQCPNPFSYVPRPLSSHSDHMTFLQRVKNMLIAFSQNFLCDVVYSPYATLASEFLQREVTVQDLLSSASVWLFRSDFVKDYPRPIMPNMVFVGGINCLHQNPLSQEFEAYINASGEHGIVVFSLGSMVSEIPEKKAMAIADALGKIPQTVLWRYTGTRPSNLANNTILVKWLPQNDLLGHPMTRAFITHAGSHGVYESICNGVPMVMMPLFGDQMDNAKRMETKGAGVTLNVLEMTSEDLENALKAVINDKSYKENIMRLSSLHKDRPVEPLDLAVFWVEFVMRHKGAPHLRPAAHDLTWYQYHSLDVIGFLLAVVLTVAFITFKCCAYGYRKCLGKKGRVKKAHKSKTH

SMILES: OCc1ccc2ccc3cccc4ccc1c2c34
Activity (Sulfotransferase 2A1): Substrate | Activity (Sulfotransferase 1C4): Substrate | Activity (Sulfotransferase 1A3): Substrate

SMILES: NC(Cc1ccc(Oc2ccc(O)c(I)c2)c(I)c1)C(=O)O (stereo unspecified) [DIIODOTHYRONINE]
Activity (Sulfotransferase 1A1): Substrate | Activity (Sulfotransferase 1B1): Substrate

SMILES: CC#C[C@]1(O)CC[C@H]2[C@@H]3CCc4cc(O)ccc4[C@H]3CC[C@@]21C [ESTROGEN]
Activity [1]: Substrate

SMILES: C[C@]12CC[C@@H]3c4ccc(O)cc4CC[C@H]3[C@@H]1CCC2=O [ESTRONE]
Activity (Sulfotransferase 2A1): Substrate | Activity (Sulfotransferase 4A1): Substrate | Activity (Sulfotransferase 1C4): Substrate | Activity (Sulfotransferase 1E1): Substrate

SMILES: NS(=O)(=O)c1cc(C(=O)O)c(NCc2ccco2)cc1Cl [FUROSEMIDE]
Activity [1]: Substrate | Activity [3]: Substrate | Activity [4]: Substrate

SMILES: Cc1ccc(C)c(OCCCC(C)(C)C(=O)O)c1 [GEMFIBROZIL]
Activity (Cytochrome P450 2C8): Inhibitor

SMILES: N[C@@H](Cc1cc(I)c(Oc2cc(I)c(O)c(I)c2)c(I)c1)C(=O)O [LEVOTHYROXINE]
Activity (Sulfotransferase 4A1): Substrate | Activity (Sulfotransferase 1B1): Substrate | Activity [5]: Substrate

SMILES: N[C@@H](Cc1cc(I)c(Oc2ccc(O)c(I)c2)c(I)c1)C(=O)O [LIOTHYRONINE]
Activity (Sulfotransferase 4A1): Substrate | Activity (Sulfotransferase 1A1): Substrate | Activity (Sulfotransferase 1B1): Substrate

SMILES: CC(C)(O)c1ccccc1CC[C@@H](SCC1(CC(=O)O)CC1)c1cccc(/C=C/c2ccc3ccc(Cl)cc3n2)c1 [MONTELUKAST]
Activity (Cytochrome P450 2C8): Inhibitor

SMILES: Nc1ccc2ccccc2c1 [NAPHTHYLAMINE]
Activity (Sulfotransferase 4A1): Substrate

SMILES: O=c1c(O)c(-c2ccc(O)c(O)c2)oc2cc(O)cc(O)c12 [QUERCETIN]
Activity (Cytochrome P450 2C8): Inhibitor

SMILES: N[C@@H](Cc1ccc(Oc2cc(I)c(O)c(I)c2)c(I)c1)C(=O)O [REVERSE TRIIODOTHYRONINE]
Activity (Sulfotransferase 1B1): Substrate

SMILES: CC(C)c1nc(N(C)S(C)(=O)=O)nc(-c2ccc(F)cc2)c1/C=C/[C@@H](O)C[C@@H](O)CC(=O)O [ROSUVASTATIN]
Activity (Cytochrome P450 2C8): Inhibitor

SMILES: Cc1c(C)c2c(c(C)c1O)CCC(C)(COc1ccc(CC3SC(=O)NC3=O)cc1)O2 (stereo unspecified) [TROGLITAZONE]
Activity [1]: Substrate | Activity [3]: Substrate | Activity (Sulfotransferase 1A1): Substrate

More lines, now with the values ahead:

Activity [1]: Substrate | Activity [2]: Substrate | Activity (Sulfotransferase 1E1): Substrate
SMILES: Oc1cccc2ccccc12 [1-NAPHTHOL]

Activity (Sulfotransferase 1A3): Substrate
SMILES: CC(C)(C)NCC(O)c1ccc(O)c(CO)c1 (stereo unspecified) [ALBUTEROL]

Activity (Sulfotransferase 1A3): Substrate
SMILES: CC(CCc1ccc(O)cc1)NCCc1ccc(O)c(O)c1 (stereo unspecified) [DOBUTAMINE]

Activity (Sulfotransferase 1A1): Substrate | Activity (Sulfotransferase 1B1): Substrate | Activity (Sulfotransferase 1A3): Substrate
SMILES: NCCc1ccc(O)c(O)c1 [DOPAMINE]

Activity (Sulfotransferase 1A3): Substrate
SMILES: NC[C@H](O)c1ccc(O)c(O)c1 [NOREPINEPHRINE]

Activity (Cytochrome P450 2C8): Inhibitor
SMILES: CCc1ccc(CCOc2ccc(CC3SC(=O)NC3=O)cc2)nc1 (stereo unspecified) [PIOGLITAZONE]

Activity [1]: Substrate | Activity [3]: Substrate | Activity [5]: Substrate
SMILES: O=C(c1ccc(OCCN2CCCCC2)cc1)c1c(-c2ccc(O)cc2)sc2cc(O)ccc12 [RALOXIFENE]
